Reference: US20210382058A1, “PATIENT SELECTION FOR TREATMENT OF MYC POSITIVE CANCERS WITH INDENOISOQUINOLINES” (Purdue Research Foundation, priority 2020, published 2021)
Where two headings read alike, the source gives them in different places.

What was measured:
[1] = tested on: MYC protein expression in MCF-7 breast cancer cells; test: Western blotting of MYC protein level in MCF-7 cells; format: cell-based, human; conditions: Homo sapiens, MCF7; western blotting, MCF-7 cells, 0.5, 1, 2, and 4 μM, 24 hours; read-out: MYC Inhibition
How it was run: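 Immunoblotting with ECL detection quantified MYC, with GAPDH (1:2000) as reference and anti-MYC at 1:1000.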

NCI-60 cancer cell lines = test: NCI-60 cancer cell line drug screen (GI50, MGM); format: cell-based, human; conditions: Homo sapiens; for GI50: read-out: Antiproliferative Activities [GI50 (μM)]
Method: Cancer cells were incubated with the test compounds at five concentrations ranging from 100 μM to 10 nM for 48 h. […] The approximate average of GI50 values across the entire panel of NCI-60 cancer cell lines for each compound was recorded as the MGM value.

human topoisomerase I = target: T1, human topoisomerase I (Homo sapiens, UniProt P11387); conditions: relative topoisomerase I inhibition levels, previously determined, six levels (0 - 5, +++++ = 5); cited from earlier work
T1 sequence (P11387 1-765): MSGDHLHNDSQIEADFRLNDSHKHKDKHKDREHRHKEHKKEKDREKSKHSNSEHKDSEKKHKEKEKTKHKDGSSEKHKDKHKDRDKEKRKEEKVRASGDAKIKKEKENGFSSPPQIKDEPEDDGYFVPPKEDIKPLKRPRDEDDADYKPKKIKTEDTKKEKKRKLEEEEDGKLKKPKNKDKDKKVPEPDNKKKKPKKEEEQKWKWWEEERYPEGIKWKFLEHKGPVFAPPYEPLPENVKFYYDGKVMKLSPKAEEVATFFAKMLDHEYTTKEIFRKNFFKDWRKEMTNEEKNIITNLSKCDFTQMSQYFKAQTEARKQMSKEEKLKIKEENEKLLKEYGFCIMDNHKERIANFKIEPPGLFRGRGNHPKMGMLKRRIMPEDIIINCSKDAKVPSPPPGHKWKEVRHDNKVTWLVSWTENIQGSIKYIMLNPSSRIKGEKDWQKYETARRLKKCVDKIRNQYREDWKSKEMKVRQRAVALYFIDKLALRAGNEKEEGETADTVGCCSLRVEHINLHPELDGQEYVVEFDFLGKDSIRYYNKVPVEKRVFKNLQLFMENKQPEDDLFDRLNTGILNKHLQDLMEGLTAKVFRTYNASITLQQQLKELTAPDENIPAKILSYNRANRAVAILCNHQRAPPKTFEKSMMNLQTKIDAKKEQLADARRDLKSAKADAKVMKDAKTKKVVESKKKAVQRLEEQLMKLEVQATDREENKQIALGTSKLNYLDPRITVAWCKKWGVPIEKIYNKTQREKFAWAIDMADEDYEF

**Q.** With `CN(C)CCCn1c2c(c3cccnc3c1=O)C(=O)c1ccccc1-2` [Compound 20] as the compound, how does the minimal effective concentration [1] read?
**A.** 4 µM

**Q.** And the GI50 (NCI-60 cancer cell lines; 786-0, Renal Cancer, 786-0)?
**A.** 1.16 µM

**Q.** What about the GI50 (NCI-60 cancer cell lines; A549, Non-Small Cell Lung Cancer, A549/ATCC) of the same compound?
**A.** 0.59 µM

**Q.** What about the GI50 (NCI-60 cancer cell lines; ACHN, Renal Cancer, ACHN) of the same compound?
**A.** 0.29 µM

**Q.** And the GI50 (NCI-60 cancer cell lines; BT-549, Breast Cancer, BT-549)?
**A.** 1.67 µM

**Q.** What about the GI50 (NCI-60 cancer cell lines; CAKI-1, Renal Cancer, CAKI-1) of the same compound?
**A.** 0.57 µM

**Q.** What about the GI50 (NCI-60 cancer cell lines; CCRF-CEM, Leukemia, CCRF-CEM) of the same compound?
**A.** 1.37 µM

**Q.** What about the GI50 (NCI-60 cancer cell lines; COLO 205, Colon Cancer, COLO 205) of the same compound?
**A.** 0.47 µM

**Q.** What about the GI50 (NCI-60 cancer cell lines; DU-145, Prostate Cancer, DU-145) of the same compound?
**A.** 1.89 µM

**Q.** And the GI50 (NCI-60 cancer cell lines; HCC 2998, Colon Cancer, HCC-2998)?
**A.** 2.17 µM

**Q.** What about the GI50 (NCI-60 cancer cell lines; HCT-15, Colon Cancer, HCT-15) of the same compound?
**A.** 1.03 µM

**Q.** What about the GI50 (NCI-60 cancer cell lines; HCT-116, Colon Cancer, HCT-116) of the same compound?
**A.** 0.44 µM

**Q.** And the GI50 (NCI-60 cancer cell lines; HL-60, Leukemia, HL-60(TB))?
**A.** 1.8 µM

**Q.** What about the GI50 (NCI-60 cancer cell lines; HOP-62, Non-Small Cell Lung Cancer, HOP-62) of the same compound?
**A.** 1.25 µM

**Q.** And the GI50 (NCI-60 cancer cell lines; HOP-92, Non-Small Cell Lung Cancer, HOP-92)?
**A.** 1.42 µM

**Q.** What about the GI50 (NCI-60 cancer cell lines; HT-29, Colon Cancer, HT29) of the same compound?
**A.** 1.01 µM

**Q.** And the GI50 (NCI-60 cancer cell lines; Hs-578T, Breast Cancer, HS 578T)?
**A.** 3.08 µM

**Q.** And the GI50 (NCI-60 cancer cell lines; IGROV-1, Ovarian Cancer, IGROV1)?
**A.** 1.91 µM

**Q.** What about the GI50 (NCI-60 cancer cell lines; K562, Leukemia, K-562) of the same compound?
**A.** 1.42 µM

**Q.** What about the GI50 (NCI-60 cancer cell lines; KM12, Colon Cancer, KM12) of the same compound?
**A.** 1.61 µM

**Q.** What about the GI50 (NCI-60 cancer cell lines; LOX IMVI, Melanoma, LOX IMVI) of the same compound?
**A.** 0.81 µM

**Q.** And the GI50 (NCI-60 cancer cell lines; Leukemia, SR)?
**A.** 0.31 µM

**Q.** What about the GI50 (NCI-60 cancer cell lines; MCF7, Breast Cancer, MCF7) of the same compound?
**A.** 0.37 µM

**Q.** What about the GI50 (NCI-60 cancer cell lines; MDA-MB-231, Breast Cancer, MDA-MB-231/ATCC) of the same compound?
**A.** 2.58 µM

**Q.** What about the GI50 (NCI-60 cancer cell lines; MDA-MB-435, Melanoma, MDA-MB-435) of the same compound?
**A.** 1.93 µM

**Q.** And the GI50 (NCI-60 cancer cell lines; MDA-MB-468, Breast Cancer, MDA-MB-468)?
**A.** 1.57 µM

**Q.** And the GI50 (NCI-60 cancer cell lines; MOLT-4, Leukemia, MOLT-4)?
**A.** 0.29 µM

**Q.** What about the GI50 (NCI-60 cancer cell lines; Melanoma, M14) of the same compound?
**A.** 1.57 µM

**Q.** What about the GI50 (NCI-60 cancer cell lines; NCI-H23, Non-Small Cell Lung Cancer, NCI-H23) of the same compound?
**A.** 1.86 µM

**Q.** What about the GI50 (NCI-60 cancer cell lines; NCI-H226, Non-Small Cell Lung Cancer, NCI-H226) of the same compound?
**A.** 1.32 µM

**Q.** What about the GI50 (NCI-60 cancer cell lines; NCI-H322M, Non-Small Cell Lung Cancer, NCI-H322M) of the same compound?
**A.** 2.47 µM

**Q.** And the GI50 (NCI-60 cancer cell lines; NCI-H460, Non-Small Cell Lung Cancer, NCI-H460)?
**A.** 0.41 µM

**Q.** What about the GI50 (NCI-60 cancer cell lines; NCI-H522, Non-Small Cell Lung Cancer, NCI-H522) of the same compound?
**A.** 1.84 µM

**Q.** And the GI50 (NCI-60 cancer cell lines; OVCAR-3, Ovarian Cancer, OVCAR-3)?
**A.** 2.41 µM

**Q.** And the GI50 (NCI-60 cancer cell lines; OVCAR-4, Ovarian Cancer, OVCAR-4)?
**A.** 1.93 µM

**Q.** What about the GI50 (NCI-60 cancer cell lines; OVCAR-5, Ovarian Cancer, OVCAR-5) of the same compound?
**A.** 2.44 µM

**Q.** What about the GI50 (NCI-60 cancer cell lines; OVCAR-8, Ovarian Cancer, OVCAR-8) of the same compound?
**A.** 0.95 µM

**Q.** And the GI50 (NCI-60 cancer cell lines; Ovarian Cancer, NCl/ADR-RES)?
**A.** 2.72 µM

**Q.** What about the GI50 (NCI-60 cancer cell lines; Prostate Cancer, PC-3) of the same compound?
**A.** 2.05 µM

**Q.** What about the GI50 (NCI-60 cancer cell lines; RPMI-8226, Leukemia, RPMI-8226) of the same compound?
**A.** 1.84 µM

**Q.** And the GI50 (NCI-60 cancer cell lines; RXF 393, Renal Cancer, RXF 393)?
**A.** 2.31 µM

**Q.** What about the GI50 (NCI-60 cancer cell lines; Renal Cancer, U0-31) of the same compound?
**A.** 0.57 µM

**Q.** And the GI50 (NCI-60 cancer cell lines; SF-268, CNS Cancer, SF-268)?
**A.** 2.15 µM

**Q.** And the GI50 (NCI-60 cancer cell lines; SF-295, CNS Cancer, SF-295)?
**A.** 0.75 µM

**Q.** What about the GI50 (NCI-60 cancer cell lines; SF-539, CNS Cancer, SF-539) of the same compound?
**A.** 0.85 µM

**Q.** What about the GI50 (NCI-60 cancer cell lines; SK-MEL-2, Melanoma, SK-MEL-2) of the same compound?
**A.** 3.92 µM

**Q.** What about the GI50 (NCI-60 cancer cell lines; SK-MEL-5, Melanoma, SK-MEL-5) of the same compound?
**A.** 1 µM

**Q.** What about the GI50 (NCI-60 cancer cell lines; SK-MEL-28, Melanoma, SK-MEL-28) of the same compound?
**A.** 1.56 µM

**Q.** And the GI50 (NCI-60 cancer cell lines; SK-OV-3, Ovarian Cancer, SK-OV-3)?
**A.** 2.22 µM

**Q.** And the GI50 (NCI-60 cancer cell lines; SN12C, Renal Cancer, SN12C)?
**A.** 1.12 µM

**Q.** What about the GI50 (NCI-60 cancer cell lines; SNB-19, CNS Cancer, SNB-19) of the same compound?
**A.** 1.75 µM

**Q.** And the GI50 (NCI-60 cancer cell lines; SNB-75, CNS Cancer, SNB-75)?
**A.** 0.66 µM

**Q.** What about the GI50 (NCI-60 cancer cell lines; SW-620, Colon Cancer, SW-620) of the same compound?
**A.** 0.46 µM

**Q.** And the GI50 (NCI-60 cancer cell lines; T47D, Breast Cancer, T-47D)?
**A.** 2.04 µM

**Q.** And the GI50 (NCI-60 cancer cell lines; TK-10, Renal Cancer, TK-10)?
**A.** 3.02 µM

**Q.** And the GI50 (NCI-60 cancer cell lines; U-251, CNS Cancer, U251)?
**A.** 1.05 µM

**Q.** What about the GI50 (NCI-60 cancer cell lines; UACC-62, Melanoma, UACC-62) of the same compound?
**A.** 1.3 µM

**Q.** And the GI50 (NCI-60 cancer cell lines; UACC-257, Melanoma, UACC-257)?
**A.** 2.02 µM

**Q.** What about the mean GI50 across NCI-60 panel (MGM) (NCI-60 cancer cell lines; average of GI50 values across the entire panel of NCI-60 cancer cell lines) of the same compound?
**A.** 1.26 µM

**Q.** What about the “Top1 Inhibiton” value (human topoisomerase I) of the same compound?
**A.** +++ (strong inhibition, +++, MYC expression inhibited at 0.5 to 1.0 μM)
